# Biological target: T1, human factor Xa (Homo sapiens, UniProt P00742)
# T1 construct: 25 μl human factor Xa (Enzyme Research Laboratories, Inc; South Bend, Ind.); purchased Enzyme Research Laboratories, Inc; South Bend, Ind
# Assay: Factor Xa chromogenic assay (substrate S-2765);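 further: purified enzyme, compound preincubated with the enzyme for 10 min before substrate addition starts the reaction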
# Format: biochemical
# Conditions: read-out: Ki(FXa)
# T1 sequence (P00742 235-488 limits assumed): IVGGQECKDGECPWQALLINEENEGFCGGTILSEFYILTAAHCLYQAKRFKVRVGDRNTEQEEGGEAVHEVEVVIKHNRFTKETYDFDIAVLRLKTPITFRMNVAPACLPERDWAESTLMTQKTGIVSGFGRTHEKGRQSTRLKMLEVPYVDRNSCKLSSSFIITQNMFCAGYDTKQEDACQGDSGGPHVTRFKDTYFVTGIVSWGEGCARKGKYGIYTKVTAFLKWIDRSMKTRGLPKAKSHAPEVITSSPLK
# T1 sequence (P00742 41-179 partner limits assumed): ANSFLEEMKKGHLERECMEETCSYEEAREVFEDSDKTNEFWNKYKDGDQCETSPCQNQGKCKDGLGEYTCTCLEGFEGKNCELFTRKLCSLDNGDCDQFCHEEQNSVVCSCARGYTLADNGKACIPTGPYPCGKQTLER
row,Ki,SMILES
1,65 nM,"COc1cc(C(=O)NCC2CCN(c3ccnc(C)c3)CC2)cc(OCCc2ccc(Cl)cc2)c1Br [Example 225, 4-Bromo-3-[2-(4-chloro-phenyl)-ethoxy]-5-methoxy-N-(2′-methyl-3,4,5,6-tetrahydro-2H-[1,4′]bipyridinyl-4-ylmethyl)-benzamide]"
2,82 nM,"O=C(O)c1cc(OCCc2ccc(Cl)cc2Cl)cc(C(=O)NCC2CCN(c3ccncc3)CC2)c1 [Example 226, 5-[2-(2,4-Dichlorophenyl)-ethoxy]-N-(3,4,5,6-tetrahydro-2H-[1,4′]bipyridinyl-4-ylmethyl)-isophthalamic acid]"
3,58 nM,"O=C(NCC1CCN(c2ccncc2)CC1)c1cc(OCCc2ccc(Cl)cc2Cl)cc(C(=O)NCC2CCN(c3ccncc3)CC2)c1 [Example 227, 5-[2-(2,4-Dichloro-phenyl)-ethoxy]-N,N′-bis-(3,4,5,6-tetrahydro-2H-[1,4′]bipyridinyl-4-ylmethyl)-isophthalamide]"
4,220 nM,"COc1cc(C(=O)NCC2CCN(c3cc[n+](O)cc3)CC2)cc(OCCc2ccc(Cl)cc2Cl)c1Cl [Example 228, 4-Chloro-3-[2-(2,4-dichloro-phenyl)-ethoxy]-5-methoxy-N-(1′-oxy-3,4,5,6-tetrahydro-2H-[1,4′]bipyridinyl-4-ylmethyl)-benzamide]"
5,649 nM,"O=C(NCC1CCN(c2cc[n+](O)cc2)CC1)c1ccc(Cl)c(OCCc2ccc(Cl)cc2Cl)c1 [Example 230, 4-Chloro-3-[2-(2,4-dichloro-phenyl)-ethoxy]-N-(1′-oxy-3,4,5,6-tetrahydro-2H-[1,4′]bipyridinyl-4-ylmethyl)-benzamide]"
6,227 nM,"O=C(NCC1CCN(c2cc[n+](O)cc2)CC1)c1ccc(Cl)c(OCCc2ccc(Cl)cc2)c1 [Example 231, 4-Chloro-3-[2-(4-chloro-phenyl)-ethoxy]-N-(1′-oxy-3,4,5,6-tetrahydro-2H-[1,4′]bipyridinyl-4-ylmethyl)-benzamide]"
7,192 nM,"CCN(CC)C(=O)c1cc(OCCc2ccc(Cl)cc2Cl)cc(C(=O)NCC2CCN(c3ccncc3)CC2)c1 [Example 232, 5-[2-(2,4-Dichloro-phenyl)-ethoxy]-N,N-diethyl-N′-(3,4,5,6-tetrahydro-2H-[1,4′]bipyridinyl-4-ylmethyl)-isophthalamide]"
8,275 nM,"O=C(NCC1CCN(c2ccncc2)CC1)c1cccc(CNCc2ccc(Cl)cc2Cl)c1 [Example 233, 3-[(2,4-Dichloro-benzylamino)-methyl]-N-(3,4,5,6-tetrahydro-2H-[1,4′]bipyridinyl-4-ylmethyl)-benzamide]"
9,3840 nM,Cc1ccc(C(=O)NCC2CCN(c3ccncc3)CC2)cc1OCc1ccc(Cl)cc1 [Example 239]
10,1340 nM,COc1ccc(COc2cc(C(=O)NCC3CCN(c4ccncc4)CC3)ccc2C)cc1 [Example 240]
11,2170 nM,COc1cccc(COc2cc(C(=O)NCC3CCN(c4ccncc4)CC3)ccc2C)c1 [Example 241]
12,2940 nM,Cc1ccc(C(=O)NCC2CCN(c3ccncc3)CC2)cc1OCc1ccc(OC(F)(F)F)cc1 [Example 242]

# Reference: patent publication US7067665B2, “Oxybenzamide derivatives useful for inhibiting factor Xa or Vlla” (Sanofi-Aventis Deutschland GmbH, priority 2000, dated 2006)
